In US8895750B2, “Heteroaromatic compounds as BTK inhibitors” (Boehringer Ingelheim International GmbH, priority 2013, dated 2014):

Target: T1, full-length human His-tagged BTK (Homo sapiens, UniProt Q06187)
T1 construct: 6 nM of full-length human His-tagged BTK (Life Technologies cat #PV3587); His; purchased Life Technologies PV3587
Assay: BTK HTRF assay (Cisbio KinEASE-TK)
Assay type: biochemical
Conditions: 6 nM BTK, 15 min preincubation at 28° C., 1 uM TK substrate-biotin, 30 uM ATP
Protocol: An HTRF assay (Cisbio KinEASE-TK cat #62TK0PEC) was performed to quantitate the ability of test compounds to inhibit BTK mediated phosphorylation of substrate. Assays were assembled in 384 well plates where 6 nM of full-length human His-tagged BTK (Life Technologies cat #PV3587) and test compound at varying concentrations were preincubated for 15 minutes at 28° C. Then, 1 uM of TK substrate-biotin and 30 uM ATP were added and incubated for an additional 30 minutes at 28° C. Phospohrylation was detected by adding 62.5 nM Streptavidin-XL665 and TK-Antibody Cryptate diluted 1:100 in HTRF detection buffer (Cisbio cat #62SDBRDF) and incubated for 60 minutes at RT. The plate was read on an Envision plate reader and the fluoresence is measured at 620 nm (cryptate) and 665 nm (XL665). A ratio is calculated (665/620) and converted to POC relative to control and blank wells.
50 mM HEPES (Invitrogen #15630), 0.01% Brij-35 (sigma #B4184), 10 mM MgC12 (Sigma M1028), 1 mM EGTA (Ambion AM9262) and 100 uM sodium orthovanedate (Sigma S6508), 1 mM DTT (Sigma D5545) and 10 nM supplement enzyme buffer (Cisbio cat#61SEBALB).

T1 sequence (Q06187 whole entry): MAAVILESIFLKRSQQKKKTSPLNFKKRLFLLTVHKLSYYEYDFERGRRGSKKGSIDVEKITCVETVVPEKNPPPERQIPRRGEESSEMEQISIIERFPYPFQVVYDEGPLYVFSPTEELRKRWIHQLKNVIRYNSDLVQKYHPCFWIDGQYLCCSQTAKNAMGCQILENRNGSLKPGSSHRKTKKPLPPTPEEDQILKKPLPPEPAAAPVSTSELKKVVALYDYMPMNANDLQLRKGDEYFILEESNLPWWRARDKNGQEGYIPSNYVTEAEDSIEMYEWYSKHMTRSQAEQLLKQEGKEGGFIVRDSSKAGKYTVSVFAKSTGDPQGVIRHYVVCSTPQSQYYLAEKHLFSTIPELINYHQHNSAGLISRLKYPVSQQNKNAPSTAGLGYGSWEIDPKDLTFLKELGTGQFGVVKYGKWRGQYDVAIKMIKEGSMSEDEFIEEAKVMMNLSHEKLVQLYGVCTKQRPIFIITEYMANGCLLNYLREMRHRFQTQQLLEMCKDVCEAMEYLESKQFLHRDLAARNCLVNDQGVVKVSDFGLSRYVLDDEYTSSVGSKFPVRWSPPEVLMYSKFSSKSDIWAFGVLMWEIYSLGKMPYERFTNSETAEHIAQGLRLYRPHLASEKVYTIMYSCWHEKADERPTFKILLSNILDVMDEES

Row | SMILES | IC50 [nM]
1 | CN(C)C/C=C/C(=O)N1CCN(c2nc(-c3ccc(Oc4ccccc4)cc3)c(C(N)=O)s2)CC1 [Example 22] | 2
2 | C=CC(=O)N1CCN(c2nc(-c3cnn(Cc4ccccc4)c3)c(C(N)=O)s2)CC1 [Example 27] | 710
3 | CC#CC(=O)N1CC2(C1)CN(c1nc(-c3ccc(Oc4ccccc4)cc3)c(C(N)=O)s1)C2 [Example 11] | 8.8
4 | CC(C)(O)C#CC(=O)N1CCN(c2nc(-c3ccc(Oc4ccccc4)cc3)c(C(N)=O)s2)CC1 [Example 37] | 0.65
5 | C=CC(=O)N1CCC2(C1)CN(c1nc(-c3ccc(Oc4ccccc4)cc3)c(C(N)=O)s1)C2 [Example 1] | 8.5
6 | C=CC(=O)N1[C@@H]2CC[C@H]1CN(c1nc(-c3ccc(Oc4ccccc4)cc3)c(C(N)=O)s1)C2 [Example 19] | 0.48
7 | CN(C)C/C=C/C(=O)N1CC2(C1)CN(c1nc(-c3ccc(Oc4ccccc4)cc3)c(C(N)=O)s1)C2 [Example 13] | 510
8 | CC#CC(=O)N1CCN(c2nc(-c3cnn(Cc4ccccc4)c3)c(C(N)=O)s2)CC1 [Example 28] | > 1000
9 | CN(C)C/C=C/C(=O)NC[C@H]1CCCN1c1nc(-c2ccc(Oc3ccccc3)cc2)c(C(N)=O)s1 [Example 44] | 560
10 | CCC(=O)N1CC2(C1)CN(c1nc(-c3ccc(Oc4ccccc4)cc3)c(C(N)=O)s1)C2 [Example 31] | > 1000
11 | CC#CC(=O)N1CCN(c2nc(-c3ccc(Oc4ccccc4)cc3)c(C(N)=O)s2)[C@@H](C)C1 [Example 21] | 1.2
12 | CC#CC(=O)N1CCN(c2nc(-c3cccc(C(=O)Nc4ccccc4)c3)c(C(N)=O)s2)CC1 [Example 46] | > 1000
13 | CC#CC(=O)N1CCCC12CCN(c1nc(-c3ccc(Oc4ccccc4)cc3)c(C(N)=O)s1)CC2 [Example 24] | 150
14 | CC#CC(=O)N1[C@@H]2CC[C@H]1CN(c1nc(-c3ccc(Oc4ccccc4)cc3)c(C(N)=O)s1)C2 [Example 18] | 0.62
15 | CC#CC(=O)N1CCN(c2nc(-c3ccc(S(C)(=O)=O)cc3)c(C(N)=O)s2)CC1 [Example 38] | > 1000
16 | CC#CC(=O)N1CCN(c2nc(-c3ccc(Oc4ccccc4)cn3)c(C(N)=O)s2)CC1 [Example 45] | 40

Row | SMILES | IC50 [nM]
17 | CC#CC(=O)N[C@@H]1CCCN(c2nc(-c3ccc(Oc4ccccc4)cc3)c(C(N)=O)s2)C1 [Example 4] | 95
18 | C/C=C/C(=O)N1CCN(c2nc(-c3ccc(Oc4ccccc4)nc3)c(C(N)=O)s2)CC1 [Example 34] | 700
19 | CC#CC(=O)N1CCN(c2nc(-c3ccc(Oc4ccccc4)cc3)c(C(N)=O)s2)CC1C (stereo not shown) [Example 25] | 1
20 | CC#CC(=O)N1C[C@@H]2C[C@H]1CN2c1nc(-c2ccc(Oc3ccccc3)cc2)c(C(N)=O)s1 [Example 16] | 1.2
21 | CC#CC(=O)NC[C@H]1CCCN1c1nc(-c2ccc(Oc3ccccc3)cc2)c(C(N)=O)s1 [Example 41] | 30
22 | CC#CC(=O)NC[C@@H]1CCCN1c1nc(-c2ccc(Oc3ccccc3)cc2)c(C(N)=O)s1 [Example 36] | 14
23 | NC(=O)c1sc(N2CCN(C(=O)C#CCO)CC2)nc1-c1ccc(Oc2ccccc2)cc1 [Example 39] | 0.69
24 | C=CC(=O)NC[C@H]1CCCN1c1nc(-c2ccc(Oc3ccccc3)cc2)c(C(N)=O)s1 [Example 40] | 120
25 | CN(C)CCC(=O)N1CCN(c2nc(-c3ccc(Oc4ccccc4)cc3)c(C(N)=O)s2)CC1 [Example 26] | 69
26 | CC#CC(=O)N1CCN(c2nc(-c3ccc(Oc4ccccc4)cc3)c(C(N)=O)s2)CC1 [Example 7] | 0.67
27 | C=CC(=O)N(C)C1CCN(c2nc(-c3ccc(Oc4ccccc4)cc3)c(C(N)=O)s2)CC1 [Example 2] | 4.8
28 | C/C=C/C(=O)N1CC2(C1)CN(c1nc(-c3ccc(Oc4ccccc4)cc3)c(C(N)=O)s1)C2 [Example 14] | > 1000
29 | C=CC(=O)N1CCN(c2nc(-c3ccc(Oc4ccccc4)nc3)c(C(N)=O)s2)CC1 [Example 32] | 17
30 | C=CC(=O)N1CC2(C1)CN(c1nc(-c3ccc(Oc4ccccc4)cc3)c(C(N)=O)s1)C2 [Example 12] | 4.1
31 | CN(C)C/C=C/C(=O)NC[C@@H]1CCCN1c1nc(-c2ccc(Oc3ccccc3)cc2)c(C(N)=O)s1 [Example 43] | 52

Second part, the compound after the results:

Row | IC50 [nM] | SMILES
32 | 2.6 | CC#CC(=O)N(C)C1CCN(c2nc(-c3ccc(Oc4ccccc4)cc3)c(C(N)=O)s2)CC1 [Example 3]
33 | 0.7 | NC(=O)c1sc(N2CCN(C(=O)C#CCN3CCOCC3)CC2)nc1-c1ccc(Oc2ccccc2)cc1 [Example 42]
34 | 4.3 | CC#CC(=O)N1CC2(CCN(c3nc(-c4ccc(Oc5ccccc5)cc4)c(C(N)=O)s3)C2)C1 [Example 9]
35 | 110 | CN(C)C/C=C/C(=O)N1CC2(CCN(c3nc(-c4ccc(Oc5ccccc5)cc4)c(C(N)=O)s3)C2)C1 [Example 10]
36 | 350 | C[C@H](Cl)C(=O)N1CC2(C1)CN(c1nc(-c3ccc(Oc4ccccc4)cc3)c(C(N)=O)s1)C2 [Example 20]
37 | 0.87 | C=CC(=O)N1CCN(c2nc(-c3ccc(Oc4ccccc4)cc3)c(C(N)=O)s2)[C@@H](C)C1 [Example 17]
38 | 180 | CC#CC(=O)N1CCN(c2nc(-c3ccc(Oc4ccccc4)nc3)c(C(N)=O)s2)CC1 [Example 33]
39 | 6.6 | C=CC(=O)N1CCN(c2nc(-c3ccc(Br)cc3)c(C(N)=O)s2)CC1 [Example 29]
40 | 43 | C=CC(=O)N1CCCC12CCN(c1nc(-c3ccc(Oc4ccccc4)cc3)c(C(N)=O)s1)CC2 [Example 23]
41 | 73 | CC#CC(=O)N1CCN(c2nc(-c3ccc(Br)cc3)c(C(N)=O)s2)CC1 [Example 30]
42 | > 1000 | NC(=O)c1sc(N2CC3(CN(C(=O)/C=C/CN4CCOCC4)C3)C2)nc1-c1ccc(Oc2ccccc2)cc1 [Example 15]
43 | 0.3 | C=CC(=O)N1CCN(c2nc(-c3ccc(Oc4ccccc4)cc3)c(C(N)=O)s2)CC1 [Example 6]
44 | 13 | C=CC(=O)N[C@@H]1CCCN(c2nc(-c3ccc(Oc4ccccc4)cc3)c(C(N)=O)s2)C1 [Example 5]
45 | 11 | C=CC(=O)NC[C@@H]1CCCN1c1nc(-c2ccc(Oc3ccccc3)cc2)c(C(N)=O)s1 [Example 35]
46 | 5.6 | C=CC(=O)N1CC2(CCN(c3nc(-c4ccc(Oc5ccccc5)cc4)c(C(N)=O)s3)C2)C1 [Example 8]
